Reference: article PMC12169609, “Efficient Crystallization of Apo Sirt2 for Small-Molecule Soaking and Structural Analysis of Ligand Interactions” (Journal of Medicinal Chemistry, 2025)

How the values were obtained:
Sirt2 = conditions: published Sirt2 inhibitors; no assay or reference printed at the place; cited from earlier work
Sirt2_56–356 [1] = molecular target: T1, Sirt2_56–356 (Homo sapiens, UniProt Q8IXJ6); test: Fluorescence polarization assay (FPA), displacement of SirReal-TAMRA probe; assay type: binding; conditions: for FP-Assay Inhibition (%) at 125 µM / inhibition at 125 µM: 125 µM compound; for FP-Assay Inhibition (%) at 500 µM / inhibition at 500 µM: 500 µM compound; for FP-Assay Inhibition (%) at 2000 µM / inhibition at 2000 µM: 2000 µM compound; for IC50: 200 nM Sirt2, 40 nM SirReal-TAMRA, 5% DMSO; for inhibition at 125 µM: read-out: FP-Assay Inhibition (%) at 125 µM; for inhibition at 500 µM: read-out: FP-Assay Inhibition (%) at 500 µM; for inhibition at 2000 µM: read-out: FP-Assay Inhibition (%) at 2000 µM
T1 construct: human strep-tagged Sirt2_56–356 was expressed and purified; strep-tag; made in house
T1 sequence (Q8IXJ6 56-356): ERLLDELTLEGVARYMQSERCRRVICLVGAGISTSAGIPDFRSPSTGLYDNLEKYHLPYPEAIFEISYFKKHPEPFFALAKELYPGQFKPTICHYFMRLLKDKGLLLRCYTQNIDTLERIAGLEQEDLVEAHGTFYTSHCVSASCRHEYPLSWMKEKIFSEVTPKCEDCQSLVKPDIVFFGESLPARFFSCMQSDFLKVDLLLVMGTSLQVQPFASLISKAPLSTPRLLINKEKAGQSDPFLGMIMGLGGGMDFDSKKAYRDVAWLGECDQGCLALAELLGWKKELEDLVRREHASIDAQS
Description: Blank controls contained 19 μL of assay buffer and 1 μL DMSO. Negative controls (P neg) used 1 μL Mz242 (20 μM final concentration), while positive controls (Ppos) replaced the inhibitor with 1 μL DMSO. […] Fluorescence intensities were measured with an EnVision plate reader (PerkinElmer, optical module – BODIPY TMR FP, excitation filter – FP 531 nm, emission filter 1 – FP p-pol 595 nm, emission filter 2 – FP s-pol 595 nm). Inhibition was calculated using the equation reported below (P I, P neg, and P pos are FP values of samples, […], respectively). I=100×(1−(PI−Pneg/Ppos−Pneg))%

Sirt2_56–356 [2] = molecular target: T1, Sirt2_56–356; test: Fluorescence thermal shift assay (DSF); assay type: binding; conditions: 6.0 μM Sirt2; for FTS-Assay Thermal shift at 1000 µM / ΔTm at 1000 µM: 1000 µM compound; for ΔTm at 1000 µM: read-out: FTS-Assay Thermal shift at 1000 µM
Description: Fluorescence thermal shift assays were performed in white 96-well plates (Hard-Shell PCR Plates, BioRad, USA) with a total volume of 20 μL and a final DMSO concentration of 5% (v/v), following a published protocol. ,
Melting temperatures were determined using GraphPad Prism, following a published procedure.

[3] = Precipitation observed in the FP assay IC50 determination; assay type: physicochemical; conditions: FP assay buffer, 5% DMSO
Source text: Figure S3: (A) Superimposition of Sirt2 apo (salmon, PDB 9FDR) with Sirt2-Mz242 (Sirt2 = yellow-orange, Mz242 = yellow, PDB 8OWZ).4 All amino acids that are involved in the formation of the selectivity pocket align very well. However, Phe96 and Arg97 from the cofactor binding loop show a different orientation, resulting from the presence or absence of Mz242. (B) Superimposition of Sirt2-KT9 (Sirt2 = wheat, KT9 = firebrick, PDB 9FDX) with NAD+ (gray) from PDB 4RMG. In the presented KT9 orientation, the close distance of the amide C=O of KT9 and the ribose moiety of NAD+ (highlighted as black circle) would result in steric clashes that prevent simultaneous binding.
Figure S4: IC50 curves of compounds 1-3 in a previously reported Sirt2 binding assay based on fluorescence polarization.5 At concentrations exceeding 1000 µM, 1 started to precipitate, thus limiting the maximum inhibition to 70%. […]

| Compound | FP-Assay Inhibition (%) at 125 µM (Sirt2_56–356 [1]) | FP-Assay Inhibition (%) at 500 µM (Sirt2_56–356 [1]) | FP-Assay Inhibition (%) at 2000 µM (Sirt2_56–356 [1]) | FTS-Assay Thermal shift at 1000 µM (Sirt2_56–356 [2]) | FTS-Assay Thermal shift at 2000 µM (Sirt2_56–356 [2]; 2000 µM compound) | other results |
| --- | --- | --- | --- | --- | --- | --- |
| COCCn1cc(COc2cccc(Cc3cnc(NC(=O)CSc4nc(C)cc(C)n4)s3)c2)nn1 [Mz242] | – | – | – | – | – | IC50 (Sirt2): 0.12 µM |
| CC1Sc2ccccc2NC(=O)C1C (stereo not shown) [No. 6] | 20.2 ± 2.9% | 59.9 ± 7.9% | 101.0 ± 4.7% | 1.5 °C | – | – |
| C#Cc1ccc(-c2cnco2)cc1 [No. 8] | 19.1 ± 4.6% | 61.2 ± 3.3% | – | 0.9 °C | 0.0 °C | – |
| N#CCOc1cc(Cl)cc(Cl)c1 [No. 10] | 19.3 ± 10.5% | 53.9 ± 8.2% | 90.3 ± 14.7% | 0.7 °C | – | – |
| CNCc1ccc(N2CCOCC2)s1 [No. 13] | 19.9 ± 3.1% | 49.3 ± 4.1% | 95.1 ± 3.5% | – | – | – |
| c1ccc2c(CN3CCOCC3)csc2c1 [No. 14] | 24.3 ± 3.5% | 42.5 ± 2.9% | 91.9 ± 13.9% | 1.3 °C | 0.7 °C | – |
| Clc1ccc2ncccc2c1 [No. 15] | 6.3 ± 7.4% | 36.2 ± 6.5% | 87.3 ± 6.8% | 0.7 °C | 0.2 °C | – |
| Cc1ccc(=O)n(Cc2ccc(Cl)cc2)n1 [No. 18] | 11.3 ± 3.2% | 41.9 ± 7.0% | 90.8 ± 2.8% | 1.3 °C | 0.1 °C | – |
| CC1(C)CC(=O)c2c(SCCO)sc(C#N)c2C1 [No. 19] | 8.2 ± 4.9% | 40.9 ± 5.6% | 91.5 ± 1.7% | – | – | – |
| Nc1nc(-c2ccc(F)c(F)c2)cs1 [No. 20] | -0.9 ± 6.3% | 38.8 ± 4.6% | 91.3 ± 3.2% | – | 0.0 °C | – |
| CC(=O)c1c(O)cccc1OCCC(C)C [No. 22] | 57.6 ± 7.3% | 74.2 ± 4.2% | 56.5 ± 2.8% | 1.9 °C | 1.6 °C | – |
| NC(=S)c1ccc(OCC(F)(F)F)nc1 [compound 1] | – | – | – | – | – | IC50 (Sirt2_56–356 [1]): 286 ± 10 µM; inhibition at 125 µM (Sirt2_56–356 [1]): 26.5 ± 5.8%; inhibition at 500 µM (Sirt2_56–356 [1]): 55.4 ± 4.3%; inhibition at 2000 µM (Sirt2_56–356 [1]): 74.2 ± 3.1%; ΔTm at 1000 µM (Sirt2_56–356 [2]): 0.3 °C; ΔTm at 2000 µM (Sirt2_56–356 [2]; 2000 µM compound, read-out: FTS-Assay Thermal shift at 2000 µM): 0.6 °C; concentration above which compound started to precipitate [3]: exceeding 1000 µM |
| O=C(NCc1ccccn1)c1cccc(Cl)c1 [compound 3] | – | – | – | – | – | IC50 (Sirt2_56–356 [1]): 565 ± 95 µM; inhibition at 125 µM (Sirt2_56–356 [1]): 15.1 ± 7.7%; inhibition at 500 µM (Sirt2_56–356 [1]): 46.9 ± 9.3%; inhibition at 2000 µM (Sirt2_56–356 [1]): 94.8 ± 3.4%; ΔTm at 1000 µM (Sirt2_56–356 [2]): 0.5 °C |

Second part, led by results:

| FP-Assay Inhibition (%) at 125 µM (Sirt2_56–356 [1]) | FP-Assay Inhibition (%) at 500 µM (Sirt2_56–356 [1]) | FP-Assay Inhibition (%) at 2000 µM (Sirt2_56–356 [1]) | FTS-Assay Thermal shift at 1000 µM (Sirt2_56–356 [2]) | FTS-Assay Thermal shift at 2000 µM (Sirt2_56–356 [2]; 2000 µM compound) | Compound | other results |
| --- | --- | --- | --- | --- | --- | --- |
| 32.8 ± 4.3% | 61.1 ± 6.5% | 78.5 ± 7.5% | 1.1 °C | 0.1 °C | CC(=O)Nc1ccc2c(c1)CCC2 [No. 4] | – |
| -7.4 ± 8.3% | 10.3 ± 6.0% | 43.8 ± 10.1% | 0.5 °C | 0.7 °C | CN(C(=O)c1cccs1)C1CC2CCC1C2 (stereo not shown) [No. 5] | – |
| 11.5 ± 5.5% | 46.9 ± 4.3% | 76.2 ± 1.8% | 0.8 °C | 0.5 °C | COC(=O)c1sccc1-n1cccc1 [No. 7] | – |
| 33.2 ± 10.3% | 66.4 ± 3.2% | 104.2 ± 3.2% | – | 0.0 °C | Nc1ccccc1-c1cccs1 [No. 12] | – |
| 23.1 ± 3.9% | 50.5 ± 5.4% | – | 0.5 °C | 0.4 °C | CCOC(=O)Cc1ccc(OC)cc1 [No. 16] | – |
| 24.7 ± 4.0% | 63.8 ± 2.4% | 99.7 ± 4.6% | 0.9 °C | 0.9 °C | CCOC(=O)Cc1cccc(Cl)c1 [No. 17] | – |
| 41.8 ± 5.9% | 91.4 ± 2.5% | 97.0 ± 6.2% | 0.9 °C | – | CCOC(=O)c1cccc(-c2nccs2)c1 [No. 21] | – |
